US20220218641A1 (Concert Pharmaceuticals, Inc., priority 2019, published 2022)
Values belong to the compound of their own block, whether it stands above or below them.

Experiments:
[1] = Pharmacokinetics dose response of non-deuterated D-serine, 30-300 mg/kg PO (Example 4); assay type: in vivo, male Sprague-Dawley rats
Description: (§1) The pharmacokinetic profile of non-deuterated D-serine was investigated in male Sprague-Dawley rats. […] Plasma was collected and analyzed for the non-deuterated D-serine. Additional blood was collected and analyzed for the full clinical chemistry profile.

[2] = Nephrotoxicity of Compound 100 and non-deuterated D-serine at 150 mg/kg PO (Example 3); assay type: in vivo, male Sprague-Dawley Rats
Description: (§2) The pharmacokinetic profile of Compound 100 was investigated in male Sprague-Dawley rats compared with that of non-deuterated D-serine. […] Plasma was collected and analyzed for Compound 100 and non-deuterated D-Serine. Additional blood was collected and analyzed for the full clinical chemistry profile.

[3] = Nephrotoxicity comparison, dose escalation 150 mg/kg to 750 mg/kg PO (Example 3, FIGS. 7-10); assay type: in vivo, rats; conditions: for BUN / Creatinine: PO doses from 150 mg/kg to 750 mg/kg
[4] = Nephrotoxicity dose response of non-deuterated D-serine, 30-300 mg/kg PO (Example 4); assay type: in vivo, male Sprague-Dawley Rats; conditions: 24 hr samples at the 150 and 300 mg/kg doses, compared to control and reference values
Description: as §1

[5] = biological target: T1, human NMDAR subunits GluN1 and GluN2A (Homo sapiens, UniProt Q05586); test: Automated patch clamp (ScreenPatch) NMDA receptor activation in HEK293 cells; assay type: cell-based; conditions: 0.003 to 10 μM
T1 construct: expressed in transfected cells; host or cells: HEK293
Method: Peak current and steady state current were measured. The activity at the NMDA receptor was indistinguishable for the two compounds.

[6] = Nephrotoxicity of non-deuterated D-serine at 300 mg/kg PO: clinical chemistry and urine (Example 2); assay type: in vivo, Male Sprague-Dawley Rats
Method: The hippocampus, cortex and plasma were collected and analyzed. Additional blood was collected and were analyzed for the full clinical chemistry profile. Urine was also collected and examined for glucose and total protein. […] The mean plasma, hippocampus, and cortex concentration at 1 hour are 19200 ng/mL, 674 ng/g, and 754 ng/g; respectively. The mean plasma, hippocampus, and cortex concentrations at 8 hours were 11250 ng/mL, 17725 ng/g, and 11875 ng/g, respectively. […] Blood urea nitrogen and creatinine levels were elevated.

[7] = Pharmacokinetic profile of Compound 100 vs non-deuterated D-serine, single 150 mg/kg PO dose (Example 3); assay type: in vivo, male Sprague-Dawley rats
Description: as §2

[8] = Pharmacokinetics of deuterated and non-deuterated D-serine, PO 10 mg/kg (Example 5); assay type: in vivo, male Sprague Dawley rats
Method: Three rats were used for each group. Blood was collected at the following time points: for IV dosing: pre-dose, 0.05, 0.167, 0.5, 1, 2, 4, 6, 8 and 12 hours post-dose; for PO dosing: pre-dose, 0.25, 0.5, 1, 2, 4, 6, 8 and 12 hours post-dose PO. Urine was collected at pre-dose (minimum 12 hours), 0-6, 6-12 and 12-24 hours. Plasma samples were analyzed and quantified for dosed compound LC-MS/MS.

[9] = serum, D-serine at 24 hr, Compound 100 at 4, 8 and 24 hours
[10] = dose escalation 150 mg/kg to 750 mg/kg

AUCinf, multiple of the 30 mg/kg value ([1]; 75 mg/kg PO (2.5× dose)): 2.9× | Cmax, multiple of the 30 mg/kg value ([1]; 75 mg/kg PO (2.5× dose)): 2.2× | AUCinf, multiple of the 30 mg/kg value ([1]; 100 mg/kg PO (3.3× dose)): 4.9× | Cmax, multiple of the 30 mg/kg value ([1]; 100 mg/kg PO (3.3× dose)): 4.0× | AUCinf, multiple of the 30 mg/kg value ([1]; 150 mg/kg PO (5× dose)): 6.9× | Cmax, multiple of the 30 mg/kg value ([1]; 150 mg/kg PO (5× dose)): 7.4× | AUCinf, multiple of the 30 mg/kg value ([1]; 300 mg/kg PO (10× dose)): 18× | Cmax, multiple of the 30 mg/kg value ([1]; 300 mg/kg PO (10× dose)): 10.7× | Tmax ([1]; plasma, 150 mg/kg PO): 18 min | Activity at the NMDA receptor (peak current and steady state current) [5]: indistinguishable
SMILES: N[C@H](CO)C(=O)O [Non-deuterated D-Serine, D-serine]
Levels of biomarkers of nephrotoxicity [2]: caused an increase | Blood urea nitrogen (BUN) level ([2]; serum, D-serine at 8 hr and 24 hr, Compound 100 at 4, 8 and 24 hours): Elevated | Creatinine level [2, 9]: Elevated | Gamma glutamyl transferase (GGT) level [2, 9]: Elevated | BUN [3]: increasingly elevated levels | Creatinine [3]: increasingly elevated levels | Gross signs of nephrotoxicity [3, 10]: observed | Creatine level [4]: Elevated | Gamma glutamyl transferase (GGT) level [4]: Elevated | Urea nitrogen level [4]: Elevated | Blood urea nitrogen level [6]: elevated | Creatinine level [6]: elevated | Glucose in urine [6]: observed

Activity at the NMDA receptor (peak current and steady state current) [5]: indistinguishable | Cmax and AUCinf compared with non-deuterated D-serine [7]: similar | Tmax compared with non-deuterated D-serine [8]: similar
SMILES: [2H][C@@](N)(CO)C(=O)O [Compound 100, (2R)-2-amino-2-deutero-3-hydroxy-propanoic acid]
Levels of biomarkers of nephrotoxicity [2]: did not increase | BUN [3]: minimal changes | Creatinine [3]: minimal changes | Exposure as measured by AUC and Cmax, compared with non-deuterated D-serine [3, 10]: greater | Gross signs of nephrotoxicity [3, 10]: not
